# Active and inactive are the calls of the source.
# Legend:
# [1] = target: 1-phosphatidylinositol 4,5-bisphosphate phosphodiesterase beta-3 (Homo sapiens, UniProt Q01970); test: Fluorescence-based biochemical high throughput dose response assay to identify inhibitors of phospholipase C isozymes (PLC-B3).
# [2] = target: 1-phosphatidylinositol 4,5-bisphosphate phosphodiesterase gamma-1 (Homo sapiens, UniProt P19174); test: Counterscreen for inhibitors of phospholipase C isozymes (PLC-B3): Fluorescence-based biochemical high throughput dose response assay to identify inhibitors of phospholipase C isozymes (PLC-gamma1).
# cells [3] = test: cells
# [4] = loss of viability in HepG2 cells – cell-based, CellTiter-Glo, cherry-picked, cytotoxicity control for Shn3 inhibitor project, dose response (AID 624134); type: functional
# HEK293 [5] = test: cells; type: functional, cell-based; conditions: Homo sapiens
# [6] = target: T1, Nucleotide-binding oligomerization domain-containing protein 1 (Homo sapiens, UniProt Q9Y239); test: blockers of NOD1 pathway activity – revised, SAR follow-up (AID 2333); type: functional
# T1 sequence (Q9Y239 whole entry): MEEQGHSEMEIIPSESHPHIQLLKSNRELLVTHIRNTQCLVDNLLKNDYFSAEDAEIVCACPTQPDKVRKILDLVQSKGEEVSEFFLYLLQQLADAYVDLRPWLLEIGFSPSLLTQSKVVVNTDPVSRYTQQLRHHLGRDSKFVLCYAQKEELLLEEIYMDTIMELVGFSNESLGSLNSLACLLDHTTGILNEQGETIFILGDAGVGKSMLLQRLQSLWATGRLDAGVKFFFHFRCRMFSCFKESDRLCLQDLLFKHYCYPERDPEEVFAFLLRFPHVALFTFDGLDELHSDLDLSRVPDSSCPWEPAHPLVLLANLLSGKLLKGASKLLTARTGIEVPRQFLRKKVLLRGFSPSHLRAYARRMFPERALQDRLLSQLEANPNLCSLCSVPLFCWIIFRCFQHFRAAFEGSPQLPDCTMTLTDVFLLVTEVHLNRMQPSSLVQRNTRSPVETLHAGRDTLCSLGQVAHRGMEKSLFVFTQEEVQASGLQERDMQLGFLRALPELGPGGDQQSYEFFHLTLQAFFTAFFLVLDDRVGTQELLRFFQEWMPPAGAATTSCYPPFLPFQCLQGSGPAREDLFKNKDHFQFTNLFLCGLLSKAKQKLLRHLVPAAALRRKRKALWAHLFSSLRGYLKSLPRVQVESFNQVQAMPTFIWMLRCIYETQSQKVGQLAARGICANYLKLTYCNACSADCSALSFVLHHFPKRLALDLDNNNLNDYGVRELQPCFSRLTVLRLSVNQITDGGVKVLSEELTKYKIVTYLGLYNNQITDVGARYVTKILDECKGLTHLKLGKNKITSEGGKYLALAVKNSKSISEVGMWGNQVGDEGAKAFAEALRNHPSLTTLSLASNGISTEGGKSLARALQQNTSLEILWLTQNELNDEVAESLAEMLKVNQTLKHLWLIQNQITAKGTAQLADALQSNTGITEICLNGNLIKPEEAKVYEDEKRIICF
# HEK293 [7] = test: cells; conditions: Homo sapiens
# [8] = Shn3 3'UTR reporter signal decrease – cell-based, Clone20 osteoblasts, firefly luciferase, cherry-pick, set 2, Schnurri-3 inhibitor project, dose response (AID 720490); type: functional;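 also: actives lower the luminescence signal as inhibitors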
# [9] = reduction of Shn3 3'UTR-driven luciferase in osteoblasts – cell-based, Clone20 osteoblasts, firefly luciferase, cherry-picked, dose response (AID 624132); type: functional;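 also: firefly luciferase luminescence from reporter carrying the Shn3 3'UTR in osteoblasts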
# [10] = non-specific 3'UTR reporter inhibition in Clone20-Shn3RL – cell-based, Renilla luciferase, cherry-picked, counter-screen for Shn3 inhibitor project, dose response (AID 624133); type: functional
# HEK293 [11] = test: inhibition of NOD1-driven NF-kB reporter – cell-based, luminescence, uHTS, primary screen (AID 1578); type: functional; conditions: Homo sapiens
# HEK293 [12] = test: cells; type: functional, cell-based; conditions: Homo sapiens; remark: listed apart in the source
# Tumor necrosis factor = Tumor necrosis factor (Homo sapiens, UniProt P01375); test: analog potency on TNFa NF-kB signaling – cell-based, revised, SAR follow-up (AID 2337); type: functional
# HEK293 [13] = test: NOD2 signaling inhibitors in MDP-stimulated cells, cell-based, uHTS, luminescence (AID 2001); type: functional; conditions: Homo sapiens
# [14] = potency of ADAM10 substrate cleavage blockers – biochemical, QFRET, dose response (AID 743254);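 also: ADAM10 enzyme with the DM2 quenched FRET peptide as substrate; EDANS fluorescence gain as the protease cuts the substrate; inhibitor potency against ADAM10 proteolytic activity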
# [15] = target: Disintegrin and metalloproteinase domain-containing protein 17 (Homo sapiens, UniProt P78536); test: inhibition of ADAM17 substrate cleavage – biochemical, quenched FRET substrate, counter-screen for ADAM10 exosite inhibitor project, dose response (AID 743253)
# [16] = Luminescence Cell-Based Dose Retest to Confirm Inhibitors of Cancer Stem Cells. [Related pubchem assays (depositor defined):AID2717, AID2721]; type: functional; conditions: Homo sapiens
# [17] = disruptors of Keap1/Nrf2 protein interaction – biochemical, fluorescence polarization, dry powder, set 3, dose response (AID 651806)
# Keap1/Nrf2 = Keap1/Nrf2 (Homo sapiens, UniProt Q14145); test: disruptors of Keap1 binding to Nrf2 peptide – biochemical, fluorescence polarization, cherry-picked samples, dose response (AID 588683)
# Fatty acid synthase [18] = target: T2, Fatty acid synthase (Homo sapiens, UniProt P49327); test: inhibition of human FAS-TE enzyme activity – biochemical, endpoint fluorescence intensity, uHTS hits, dose response (AID 624327); type: functional;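 also: fluorescence from hydrolysis of an O-methyl fluorescein acyl ester substrate by the enzyme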
# Fatty acid synthase [19] = target: T2, Fatty acid synthase; test: inhibition of human FAS-TE enzyme activity – biochemical, endpoint fluorescence intensity, powder samples, SAR follow-up (AID 652164); type: functional
# Fatty acid synthase [20] = target: T2, Fatty acid synthase; test: inhibition of human FAS-TE enzyme activity – biochemical, kinetic fluorescence intensity, dose response (AID 624326); type: functional;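 also: rate of fluorescence rise from hydrolysis of a fluorogenic O-methyl fluorescein ester substrate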
# fMet-Leu-Phe receptor = fMet-Leu-Phe receptor (Homo sapiens, UniProt P21462); test: formyl peptide receptor binders – dose response (AID 519); type: functional
# [21] = PAX8-dependent cell viability loss – plate reader, dry powder, dose response (AID 743049); type: functional, cell-based
# [22] = OV-90 cell viability loss – plate reader, dry powder, SA8, PAX8 inhibitor project, dose response (AID 743149); type: functional, cell-based
# [23] = OVCAR4 cell viability loss – plate reader, dry powder, SA11, cytotoxicity control for PAX8 inhibitor project, dose response (AID 743150); type: functional, cell-based; conditions: OVCAR-4
# [24] = toxicity toward immortalized ovarian surface epithelium – cell-based, plate reader, dry powder samples, cytotoxicity control for PAX8 inhibitor project, dose response (AID 743045); type: functional
# [25] = A2780 cell killing – plate reader, dry powder samples, cytotoxicity control, dose response (AID 743046); type: functional, cell-based
# [26] = IGROV1 cell killing – plate reader, dry powder samples, PAX8 inhibitor project, dose response (AID 743043); type: functional, cell-based; conditions: IGROV-1
# [27] = inhibitors acting on PAX2 in cells – cell-based, plate reader, dry powder samples, selectivity assay for PAX8 inhibitor project, dose response (AID 743048); type: functional;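 also: HEK293 cells carrying a WT1 promoter luciferase reporter driven by expressed Pax2; potency is for inhibition of Pax2 driven reporter signal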
# [28] = OVCAR-3 cell viability loss – plate reader, dry powder samples, PAX8 inhibitor project, dose response (AID 743044); type: functional, cell-based
# [29] = COV434 cell viability loss – plate reader, dry powder, SA7, cytotoxicity control for PAX8 inhibitor project, dose response (AID 743145); type: functional, cell-based
# [30] = COV362 cell viability loss – plate reader, dry powder, SA12, cytotoxicity control for PAX8 inhibitor project, dose response (AID 743144); type: functional, cell-based
# cells [31] = test: cells; remark: listed apart in the source
# [32] = target: T3, Oxysterols receptor LXR-beta (Homo sapiens, UniProt P55055); type: functional, cell-based;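 also: Cell-based luminescence dose-response assay of agonist activity at LXR, run as a confirmatory counterscreen to a daf-12 agonist screen; HEK293 cells with Gal4-LXR fusion and GAL4-driven luciferase reporter; agonist potency from rising luciferase signal of a Gal4-LXR reporter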
# T3 sequence (P55055 whole entry): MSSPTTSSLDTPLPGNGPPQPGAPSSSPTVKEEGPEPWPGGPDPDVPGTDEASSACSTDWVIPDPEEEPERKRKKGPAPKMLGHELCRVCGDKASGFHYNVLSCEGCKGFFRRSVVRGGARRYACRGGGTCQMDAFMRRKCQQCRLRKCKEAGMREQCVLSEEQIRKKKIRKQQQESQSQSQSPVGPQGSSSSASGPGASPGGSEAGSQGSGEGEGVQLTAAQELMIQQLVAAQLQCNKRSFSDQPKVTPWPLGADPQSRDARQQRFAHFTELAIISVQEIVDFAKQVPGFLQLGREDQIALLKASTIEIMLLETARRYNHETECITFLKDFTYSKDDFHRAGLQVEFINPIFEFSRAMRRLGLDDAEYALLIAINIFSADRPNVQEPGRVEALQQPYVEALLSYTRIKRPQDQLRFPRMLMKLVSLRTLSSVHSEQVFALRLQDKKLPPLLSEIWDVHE
# T2 sequence (P49327 whole entry): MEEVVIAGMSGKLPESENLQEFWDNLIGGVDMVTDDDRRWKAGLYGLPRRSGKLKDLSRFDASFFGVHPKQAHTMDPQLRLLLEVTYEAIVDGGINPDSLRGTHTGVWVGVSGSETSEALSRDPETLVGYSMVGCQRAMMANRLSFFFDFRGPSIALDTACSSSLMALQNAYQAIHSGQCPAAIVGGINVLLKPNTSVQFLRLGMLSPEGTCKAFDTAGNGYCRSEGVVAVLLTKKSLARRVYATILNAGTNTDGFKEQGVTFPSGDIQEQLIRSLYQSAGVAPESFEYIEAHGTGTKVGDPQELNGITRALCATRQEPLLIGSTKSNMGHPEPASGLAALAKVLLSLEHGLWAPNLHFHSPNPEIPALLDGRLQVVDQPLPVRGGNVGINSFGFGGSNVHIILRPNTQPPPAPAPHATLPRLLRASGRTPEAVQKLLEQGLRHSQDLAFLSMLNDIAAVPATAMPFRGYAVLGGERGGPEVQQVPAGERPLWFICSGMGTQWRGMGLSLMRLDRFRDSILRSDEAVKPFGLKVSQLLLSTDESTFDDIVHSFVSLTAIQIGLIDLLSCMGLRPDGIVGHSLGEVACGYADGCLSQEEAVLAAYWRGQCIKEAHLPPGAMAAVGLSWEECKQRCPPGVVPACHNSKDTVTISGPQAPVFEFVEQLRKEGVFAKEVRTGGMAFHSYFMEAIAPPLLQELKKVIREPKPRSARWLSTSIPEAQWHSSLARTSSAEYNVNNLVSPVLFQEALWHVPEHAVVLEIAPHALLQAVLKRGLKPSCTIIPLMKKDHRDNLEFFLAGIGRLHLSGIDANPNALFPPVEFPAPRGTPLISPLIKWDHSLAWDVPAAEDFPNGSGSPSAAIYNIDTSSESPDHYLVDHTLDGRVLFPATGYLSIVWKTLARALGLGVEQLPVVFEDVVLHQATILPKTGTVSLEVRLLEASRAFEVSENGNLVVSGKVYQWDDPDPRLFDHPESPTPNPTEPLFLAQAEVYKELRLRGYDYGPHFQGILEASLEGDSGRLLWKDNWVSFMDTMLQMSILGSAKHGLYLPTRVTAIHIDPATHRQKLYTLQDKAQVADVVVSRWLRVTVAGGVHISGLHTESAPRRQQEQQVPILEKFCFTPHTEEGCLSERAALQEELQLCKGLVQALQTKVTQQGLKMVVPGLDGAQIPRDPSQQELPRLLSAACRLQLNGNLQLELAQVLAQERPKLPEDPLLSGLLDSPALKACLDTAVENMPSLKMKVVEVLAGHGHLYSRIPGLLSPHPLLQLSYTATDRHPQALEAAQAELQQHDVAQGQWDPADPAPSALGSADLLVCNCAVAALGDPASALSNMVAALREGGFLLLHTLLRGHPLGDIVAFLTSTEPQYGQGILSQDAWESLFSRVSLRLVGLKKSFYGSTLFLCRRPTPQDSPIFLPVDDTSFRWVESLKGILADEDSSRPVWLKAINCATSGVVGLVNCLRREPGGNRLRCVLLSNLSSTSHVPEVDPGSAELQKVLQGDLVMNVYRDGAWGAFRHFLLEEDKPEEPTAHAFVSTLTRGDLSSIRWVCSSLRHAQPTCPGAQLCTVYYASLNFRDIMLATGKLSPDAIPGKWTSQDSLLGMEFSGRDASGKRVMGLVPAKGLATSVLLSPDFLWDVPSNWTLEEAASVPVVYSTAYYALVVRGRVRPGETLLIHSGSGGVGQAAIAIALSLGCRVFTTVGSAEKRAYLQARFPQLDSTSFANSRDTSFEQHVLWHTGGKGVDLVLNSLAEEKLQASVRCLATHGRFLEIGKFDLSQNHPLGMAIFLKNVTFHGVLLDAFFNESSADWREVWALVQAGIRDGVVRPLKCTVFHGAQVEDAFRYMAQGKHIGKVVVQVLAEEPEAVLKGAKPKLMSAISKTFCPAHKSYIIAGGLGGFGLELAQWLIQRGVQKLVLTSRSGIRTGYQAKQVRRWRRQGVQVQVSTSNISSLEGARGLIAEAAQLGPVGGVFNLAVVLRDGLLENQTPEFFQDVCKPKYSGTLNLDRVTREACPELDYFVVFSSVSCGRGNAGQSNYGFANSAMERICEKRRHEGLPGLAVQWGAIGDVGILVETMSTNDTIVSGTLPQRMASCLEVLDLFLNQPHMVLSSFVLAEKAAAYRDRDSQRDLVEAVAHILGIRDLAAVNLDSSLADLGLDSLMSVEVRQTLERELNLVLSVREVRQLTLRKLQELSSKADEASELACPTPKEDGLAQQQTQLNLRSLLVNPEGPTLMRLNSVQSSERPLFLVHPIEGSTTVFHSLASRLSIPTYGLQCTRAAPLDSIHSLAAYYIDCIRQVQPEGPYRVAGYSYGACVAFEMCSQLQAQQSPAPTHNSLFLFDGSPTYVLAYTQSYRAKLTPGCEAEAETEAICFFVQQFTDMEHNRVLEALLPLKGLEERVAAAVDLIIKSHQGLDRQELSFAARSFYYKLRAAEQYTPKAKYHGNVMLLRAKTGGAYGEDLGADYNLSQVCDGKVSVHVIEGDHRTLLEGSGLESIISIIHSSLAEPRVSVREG
# Sequence of Disintegrin and metalloproteinase domain-containing protein 17 (P78536 whole entry, the tested form may be a part): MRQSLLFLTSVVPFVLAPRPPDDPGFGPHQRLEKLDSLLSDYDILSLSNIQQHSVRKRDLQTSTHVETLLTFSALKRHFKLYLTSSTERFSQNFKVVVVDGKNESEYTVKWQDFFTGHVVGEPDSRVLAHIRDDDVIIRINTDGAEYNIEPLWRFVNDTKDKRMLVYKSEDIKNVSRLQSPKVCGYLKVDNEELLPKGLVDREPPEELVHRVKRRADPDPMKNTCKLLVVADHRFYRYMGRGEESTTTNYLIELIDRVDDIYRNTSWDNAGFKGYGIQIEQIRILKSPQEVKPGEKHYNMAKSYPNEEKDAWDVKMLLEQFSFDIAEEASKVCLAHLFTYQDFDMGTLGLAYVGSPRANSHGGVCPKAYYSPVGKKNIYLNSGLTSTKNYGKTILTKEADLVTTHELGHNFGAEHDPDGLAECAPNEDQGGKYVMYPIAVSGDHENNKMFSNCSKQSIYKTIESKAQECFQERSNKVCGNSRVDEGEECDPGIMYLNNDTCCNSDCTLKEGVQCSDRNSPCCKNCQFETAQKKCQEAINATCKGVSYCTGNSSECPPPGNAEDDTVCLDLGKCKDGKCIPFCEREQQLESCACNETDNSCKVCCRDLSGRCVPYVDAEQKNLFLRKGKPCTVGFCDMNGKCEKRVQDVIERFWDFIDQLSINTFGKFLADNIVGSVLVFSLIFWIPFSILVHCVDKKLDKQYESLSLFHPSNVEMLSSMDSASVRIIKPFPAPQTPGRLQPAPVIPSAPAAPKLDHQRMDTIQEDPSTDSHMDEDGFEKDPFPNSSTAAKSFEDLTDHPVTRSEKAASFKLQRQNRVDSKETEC
# Sequence of Tumor necrosis factor (P01375 whole entry): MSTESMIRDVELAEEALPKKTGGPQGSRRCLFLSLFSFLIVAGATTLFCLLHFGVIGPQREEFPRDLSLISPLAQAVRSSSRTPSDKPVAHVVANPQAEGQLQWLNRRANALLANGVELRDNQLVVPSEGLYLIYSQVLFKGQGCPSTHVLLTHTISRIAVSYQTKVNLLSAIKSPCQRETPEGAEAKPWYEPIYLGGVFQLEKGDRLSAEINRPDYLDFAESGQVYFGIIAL
# Sequence of 1-phosphatidylinositol 4,5-bisphosphate phosphodiesterase gamma-1 (P19174 whole entry): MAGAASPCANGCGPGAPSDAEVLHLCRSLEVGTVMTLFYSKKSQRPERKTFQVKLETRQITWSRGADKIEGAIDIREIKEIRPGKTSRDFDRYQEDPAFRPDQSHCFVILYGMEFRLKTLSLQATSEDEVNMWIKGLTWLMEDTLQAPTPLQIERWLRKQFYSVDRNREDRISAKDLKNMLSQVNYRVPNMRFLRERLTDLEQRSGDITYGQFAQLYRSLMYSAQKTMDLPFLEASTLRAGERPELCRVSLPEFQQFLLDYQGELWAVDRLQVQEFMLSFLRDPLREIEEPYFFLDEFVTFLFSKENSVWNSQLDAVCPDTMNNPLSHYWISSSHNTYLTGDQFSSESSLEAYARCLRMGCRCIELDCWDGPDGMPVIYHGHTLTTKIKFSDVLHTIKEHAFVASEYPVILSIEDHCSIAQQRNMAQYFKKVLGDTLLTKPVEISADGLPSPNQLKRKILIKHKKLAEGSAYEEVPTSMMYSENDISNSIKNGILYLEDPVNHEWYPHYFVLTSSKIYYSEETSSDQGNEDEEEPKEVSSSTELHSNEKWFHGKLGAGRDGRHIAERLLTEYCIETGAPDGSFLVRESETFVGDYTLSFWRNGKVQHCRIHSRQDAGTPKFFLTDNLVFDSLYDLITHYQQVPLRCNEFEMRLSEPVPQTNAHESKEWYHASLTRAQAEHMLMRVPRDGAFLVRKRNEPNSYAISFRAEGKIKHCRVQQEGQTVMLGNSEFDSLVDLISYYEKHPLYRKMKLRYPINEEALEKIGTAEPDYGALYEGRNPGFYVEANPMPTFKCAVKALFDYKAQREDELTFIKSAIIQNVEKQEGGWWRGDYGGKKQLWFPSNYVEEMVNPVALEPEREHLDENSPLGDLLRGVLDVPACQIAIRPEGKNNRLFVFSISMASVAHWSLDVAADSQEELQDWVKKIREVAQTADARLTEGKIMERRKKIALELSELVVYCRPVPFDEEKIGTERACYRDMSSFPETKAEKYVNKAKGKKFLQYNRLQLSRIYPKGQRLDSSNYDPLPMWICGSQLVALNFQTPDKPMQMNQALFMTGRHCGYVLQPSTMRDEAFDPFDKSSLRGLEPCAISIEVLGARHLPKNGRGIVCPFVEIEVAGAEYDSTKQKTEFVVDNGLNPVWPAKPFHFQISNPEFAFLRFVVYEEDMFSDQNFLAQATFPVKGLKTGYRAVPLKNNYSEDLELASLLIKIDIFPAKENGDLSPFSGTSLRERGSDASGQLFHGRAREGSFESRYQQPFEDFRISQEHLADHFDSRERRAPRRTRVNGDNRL
smiles,measurement,setting,value
CCCCN=C(S)NNC(=O)c1csc(CC)c1,IC50,[1],> 122 µM (inactive)
same,IC50,[2],> 122 µM (inactive)
COc1ccc(C2C3=C(CCCC3=O)N(CC(=O)O)C3=C2C(=O)CCC3)cc1,AC50,cells [3],5.91 µM (active)
CC1Cc2cc(S(=O)(=O)N3CCN(c4ccc(Cl)cc4)CC3)ccc2N1C(=O)C1CC1 (stereo not given),AC50,[4],64.6 µM (active)
same,IC50,HEK293 [5],> 20 µM (inactive)
same,IC50,[6],5.6 µM (active)
same,IC50,HEK293 [7],> 20 µM (inactive)
same,AC50,[8],5 µM (active)
same,AC50,[9],4.26 µM (active)
same,AC50,[10],25.4 µM (active)
same,EC50,HEK293 [11],> 20 µM (inactive)
same,IC50,HEK293 [12],2.22 µM (active)
same,IC50,Tumor necrosis factor,9.52 µM (active)
same,IC50,HEK293 [13],4.43 µM (active)
Cc1ccc(S(=O)(=O)Nc2ccc(-c3csc(-c4ccccc4)n3)cc2)cc1,IC50,[14],> 69.5 µM (inactive)
same,IC50,[15],> 69.5 µM (inactive)
same,AC50,[16],3.5 µM (active)
Cc1ccc(S(=O)(=O)Nc2cc(C(C(=O)OC(C)C)C(=O)C(F)(F)F)c(O)c3ccccc23)c(C)c1 (stereo not given),AC50,[17],74.9 µM (active)
same,AC50,Keap1/Nrf2,2.67 µM (active)
CC(C)C(=O)Nc1nc(-c2ccc(S(=O)(=O)N3CCOCC3)cc2)cs1,IC50,Fatty acid synthase [18],0.614 µM (active)
same,IC50,Fatty acid synthase [19],0.874 µM (active)
same,IC50,Fatty acid synthase [20],0.53 µM (active)
CCOc1cc(C2C(C(=O)c3ccco3)=C(O)C(=O)N2CCc2ccccc2)ccc1O (stereo not given),Ki,fMet-Leu-Phe receptor,> 66.7 µM (inactive)
COc1ccc(OC)c2sc(N(CCCN(C)C)C(=O)CCS(=O)(=O)c3ccccc3)nc12,AC50,[21],13.2 µM (active)
same,AC50,[22],17.3 µM (active)
same,AC50,[23],22.8 µM (active)
same,AC50,[24],14.5 µM (active)
same,AC50,[25],40 µM (active)
same,AC50,[26],25.5 µM (active)
same,AC50,[27],56.3 µM (active)
same,AC50,[28],7.2 µM (active)
same,AC50,[29],5.66 µM (active)
same,AC50,[30],12 µM (active)
N#Cc1ccsc1NC(=O)CSc1nncs1,EC50,cells [31],> 67.5 µM (inactive)
same,EC50,[32],> 67.5 µM (inactive)

# Source: ChEMBL document CHEMBL1201862, “PubChem BioAssay data set” (2004)
